One data set concerns NSCLC. Kind of data set: Downregulation of TrxR1 expression in human NSCLC cells by IHC analysis. The data set is classed as functional, cell-based.
In data set [1] the target is T1, Thioredoxin reductase 1, cytoplasmic (Homo sapiens) (UniProt Q16881).
T1 sequence (whole entry): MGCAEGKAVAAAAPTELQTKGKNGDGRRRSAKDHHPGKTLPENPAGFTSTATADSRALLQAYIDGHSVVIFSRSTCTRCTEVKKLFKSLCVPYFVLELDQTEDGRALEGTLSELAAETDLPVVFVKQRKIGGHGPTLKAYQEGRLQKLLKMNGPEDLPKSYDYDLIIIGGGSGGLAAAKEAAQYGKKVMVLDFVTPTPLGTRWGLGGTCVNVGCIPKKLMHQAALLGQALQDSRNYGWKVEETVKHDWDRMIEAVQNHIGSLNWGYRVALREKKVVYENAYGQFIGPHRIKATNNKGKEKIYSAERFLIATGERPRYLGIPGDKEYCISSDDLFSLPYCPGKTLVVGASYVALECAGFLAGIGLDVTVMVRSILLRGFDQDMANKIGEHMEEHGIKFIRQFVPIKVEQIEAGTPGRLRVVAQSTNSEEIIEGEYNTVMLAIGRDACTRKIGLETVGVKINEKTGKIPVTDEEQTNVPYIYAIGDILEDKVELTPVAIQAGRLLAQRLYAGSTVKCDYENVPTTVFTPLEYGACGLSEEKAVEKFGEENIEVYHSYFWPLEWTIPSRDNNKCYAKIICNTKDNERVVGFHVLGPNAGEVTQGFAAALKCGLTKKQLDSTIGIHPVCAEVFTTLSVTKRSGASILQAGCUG
Kind of data set: Inhibition of TrxR1 in human NCI-H2291 cells. The data set is classed as cell-based. To be noted: dose <= 10.0 µM.

Data set [2] concerns NCI-H1299. In words: Inhibition of colony formation in human NCI-H1299 cells assessed as reduction in colony number at 4 uM incubated for 14 days by crystal violet staining based analysis. The class given is functional, cell-based. The conditions noted are these: time 14.0 day.
Data set [3] deals with NCI-H1299. In words: Induction of intracellular ROS generation in human NCI-H1299 cells upto 10 uM by DCFH-DA probe based fluorescence assay. The data set is classed as functional, cell-based.
The subject of data set [4] is A549. In words: Antiproliferative activity against human A549 cells assessed as increase in cell viability in presence of NAC. The data set is classed as functional, cell-based.
In data set [5] the test system is NCI-H1299. In words: Induction of morphological changes in human NCI-H1299 cells assessed as decrease in cell density upto 10 uM by AO/EB staining based analysis. The data set is classed as functional.
The test system of data set [6] is A549. Kind of data set: Induction of apoptosis in human A549 cells assessed as viable cells at 10 uM measured after 48 hrs by Annexin V/FITC staining based flow cytometric analysis (reference value: 90.8 %). The data set is classed as functional. To be noted: read-out: Activity. (In general: Flow cytometry measures light scatter and fluorescence of single cells or particles in a stream.)

For data set [7], the system named is A549. Kind of data set: Induction of apoptosis in human A549 cells assessed as necrotic cells at 10 uM measured after 48 hrs by Annexin V/FITC staining based flow cytometric analysis (reference value: 2.52 %). The data set is classed as functional.
Data set [8] concerns NCI-H1299. Kind of data set: Induction of apoptosis in human NCI-H1299 cells assessed as viable cells at 5 uM measured after 48 hrs by Annexin V/FITC staining based flow cytometric analysis (reference value: 96.3%). The data set is classed as functional. To be noted: read-out: Activity.
Data set [9] relates to NCI-H1299. Kind of data set: Induction of apoptosis in human NCI-H1299 cells assessed as early apoptotic cells at 10 uM measured after 48 hrs by Annexin V/FITC staining based flow cytometric analysis (reference value: 1.14 %). The data set is classed as functional.
The test system of data set [10] is NCI-H1299. Kind of data set: Induction of apoptosis in human NCI-H1299 cells assessed as late apoptotic cells at 10 uM measured after 48 hrs by Annexin V/FITC staining based flow cytometric analysis (reference value: 1.96%). The class given is functional.
The test system of data set [11] is NCI-H1299. In words: Induction of apoptosis in human NCI-H1299 cells assessed as increase in Bax expression at upto 10 uM incubated for 24 hrs by Western blot analysis. The data set is classed as functional, cell-based.
For data set [12], the system named is A549. In words: Induction of apoptosis in human A549 cells assessed as increase in Bax expression at upto 10 uM incubated for 24 hrs by Western blot analysis. The data set is classed as functional, cell-based. Background: In western blotting, separated proteins are transferred to a membrane and probed.
For data set [13], the system named is NCI-H1299. In words: Induction of ferroptosis in human NCI-H1299 cells assessed as increase in intracellular LPO accumulation at 5 uM incubated for 24 hrs by flow cytometry analysis. The class given is functional, cell-based.
Data set [14] has as its system A549. In words: Induction of ROS accumulation in human TrxR1 knockdown A549 cells incubated for 24 hrs. The class given is functional, cell-based.
Data set [15] relates to NCI-H1299. In words: Antitumor activity against human NCI-H1299 cells xenografted in BALB/c mouse assessed as reduction in tumor weight at 5 to 10 mg/kg, po administered every 2 days for 2 weeks. The class given is functional, organism-based. To be noted: dose 5-10 mg/kg. For orientation: A xenograft is tissue or cells of one species grown in another, often human tumour cells in immunodeficient mice.

In data set [16] the test system is NCI-H1299. Kind of data set: Antitumor activity against human NCI-H1299 cells xenografted in BALB/c mouse assessed as decrease in TrxR1 expression at 5 to 10 mg/kg, po administered every 2 days for 2 weeks by IHC analysis. The conditions noted are these: dose 5-10 mg/kg. The class given is functional, organism-based.
Data set [17] in a line: AUC (0 to t) in male Sprague-Dawley rat at 10 mg/kg, iv measured upto 24 hrs by LC-MS/MS analysis. The data set is classed as ADME, organism-based. The conditions noted are these: in vivo.
Data set [18] can be described thus: Clearance in male Sprague-Dawley rat at 10 mg/kg, iv measured upto 24 hrs by LC-MS/MS analysis. The class given is ADME, organism-based. The conditions noted are these: in vivo.

Calls of active or inactive are those of the source. The rule behind the calls is not given here.

By AUC(0-t) is commonly meant exposure summed from dosing to a finite time, without extrapolation to infinity. High values mean more exposure, low ones less exposure. Usually clearance stands for a measure of how efficiently the substance is removed, as volume per time. A higher clearance goes with a high capacity for elimination.

Regarding `CCCNC(=O)O[C@@H]1/C=C(\C)C[C@H]2C=C(C[C@@H]3OC(=O)[C@H](CSC(=S)N(C)C)[C@H]31)C(=O)O2`, the result with NSCLC, in the data set with NCI-H1299 [3], in the data set with A549 [4], in the data set on NCI-H1299 [5], with NCI-H1299 [11] and in the data set on A549 [12] was Active. In addition, the outcome in the data set on NCI-H1299 [13], in the data set with A549 [14], with NCI-H1299 [15] and in the data set on NCI-H1299 [16] was Active. For the same compound, in data set [1], the inhibition entry was “Dose-dependent-effect”. The inhibition entry with NCI-H1299 [2] was “Active”. Further, the viability at 10 µM in the data set on A549 [6] amounted to 68.8%. Further, the Activity in the data set with A549 [7] is on record as 3.24%; with NCI-H1299 [9], 8.46%; in the data set with NCI-H1299 [10] it was 21.9%. For the same compound, the viability at 5 µM in the data set with NCI-H1299 [8] worked out at 72.7%. In addition, the AUC(0-t) at 24 h in data set [17] amounted to 997 ng·h/mL. This compound gave a clearance in data set [18] of 162 mL/min/kg.

The record behind these values is ChEMBL document CHEMBL6121052, “Design of ROS-Triggered Sesquiterpene Lactone SC Prodrugs as TrxR1 Covalent Inhibitors for the Treatment of Non-Small Cell Lung Cancer” (J Med Chem, 2025).
